Measured values reported in US20230035403A1, “Method For Determining Responsiveness To Prostate Cancer Treatment” (Janssen Biotech, Inc., priority 2020, published 2023).

What was measured:
[1] = tested on: CD8+ T cells in PBMCs from patients with metastatic castrate-resistant prostate cancer; assay: Patient PBMC restimulation assay (in vitro immunogenicity of neoantigens); assay type: cell-based, human; details: for Immunogenic: Patient PBMC restimulation, TNFα and IFNγ production by CD8+ T cells; for Maximum fold change over negative control: TNFα+IFNγ+CD8+ T cells, highest fold change across the PBMC donors evaluated, 9 mer peptide; for Maximum frequency of TNFα^+IFNγ^+CD8^+ T cells (Percent): greatest frequency among all tested PBMC donors, negative control 0.011-0.8 depending on patient
Description: PBMCs from human patients with metastatic castrate-resistant prostate cancer were thawed using media (RPMI 1640 supplemented with Glutamax, 10% HI FBS, and 1× Sodium Pyruvate). Cells were counted and plated in a 96 well round bottom microplate at a concentration of 250,000 viable cells per well. Lyophilized peptides were solubilized in 100% DMSO and diluted in media to 10 μg/mL. Neoantigen peptides were added in equal volume to PBMCs for a final concentration of 5 μg/mL. CEF Peptide Pool “Plus” (Cellular Technologies, Ltd.) was utilized as a positive control and DMSO at the same final concentration as the experimental peptides was utilized as a negative control. Human IL-15 (Peprotech) was added to all wells at final concentration of 10 ng/mL.
Plates were incubated at 37° C. (5% CO2) for a total of 13 days. Media was refreshed every 2 days with IL-15 (10 ng/mL final concentration) and IL-2 (R&D systems, 10 IU/mL final concentration). On day 12, PBMCs were re-stimulated with identical experimental peptides or controls, at same concentration as peptide stimulation on Day 1. After 1-hour incubation, protein Inhibitor Cocktail (eBioscience) was added to every well and plate was incubated overnight.
(§1) On day 13, cells were stained for intracellular flow cytometry analysis. The cells were washed with PBS and stained with Live/Dead Fixable Aqua Dead Cell stain (Thermo-Fisher). Following the live/dead stain, cells were blocked using Biotin-Free Fc Receptor Blocker (Accurate Chemical & Scientific Corp). Extracellular cellular flow panel (1 μL/antibody per well in 50 μL) consisted of CD3 PerCP-Cy5.5 (Biolegend), CD4 BV421 (Biolegend), and CD8 APC-Cy7 (Biolegend). After extracellular staining, cells were fixed using Foxp3/Transcription Factor Staining Buffer Set (eBioscience) and stained for intracellular proteins (1:50 dilution) using TNFα FITC (R&D Systems) and IFNγ BV785 (Biolegend). Cells were washed and resuspended in stain buffer and analyzed using a BD Celesta flow cytometer.
Flow cytometry cell staining analysis was completed using FlowJo v10. Cells were gated on live, singlet, CD3+ cells. The CD8+ T cells were analyzed for TNFα/IFNγ expression and the frequency of double positive TNFα/IFNγ CD8+ T cells was recorded. Responses were assessed to be positive when the frequency of double positive TNFα/IFNγ CD8+ T cells due to stimulation with an experimental peptide was increased greater than or equal to 2-fold over the DMSO only negative control for that patient. Peptides were analyzed in 1 to 7 patient samples.
The 9 mer fragments shown in Table 13 were assessed for their ability to activate T cells using the Patient PBMC restimulation assay described in Example 1 using TNFα and IFNγ production by CD8^+ T cells as a readout. Self-antigens shown in Table 15 were also used in the assays. […] PBMCs from ten patients were evaluated.

[2] = tested on: autologous CD3+ Pan-T cells (CD8+ and CD4+ T cells) with peptide-pulsed CD1c+ Dendritic Cells; assay: Exogenous autologous normal donor restimulation assay (in vitro immunogenicity); assay type: cell-based, human; set-up: key to Max. Frequency of CD8+ TNFαINFγ DP / Max. Frequency of CD4+ TNFαINFγ DP: % of T cells double positive for TNFα/IFNγ; details: pool of overlapping 15-mer peptides, maximum across normal donors; for Maximum Fold Change Over Background CD4+ cells / Maximum Fold Change Over Background CD8+ cells / Maximum Frequency of TNFα/IFNγ Double Positive CD4+ T cells / Maximum Frequency of TNFα/IFNγ Double Positive CD8+ T cells: Table 25; for Maximum Fold Change Over Background CD4+ cells: TNFα+IFNγ+ CD4+ T cells; for Maximum Fold Change Over Background CD4+ cells / Maximum Fold Change Over Background CD8+ cells: over negative control; for Maximum Fold Change Over Background CD8+ cells: TNFα+IFNγ+ CD8+ T cells; for Max. Fold Change over background CD4+ TNFαINFγ double positive DP / Max. Fold Change over background CD8+ TNFαINFγ double positive DP / Max. Frequency of CD4+ TNFαINFγ DP / Max. Frequency of CD8+ TNFαINFγ DP: Table 28, additional neoantigens
Description: CD1c+ Dendritic Cells (DC) isolated from human normal PBMCs were thawed using media (IMDM (Gibco) supplemented with glutamine, HEPES, 5% human serum (Sigma), and 1× Pen-Strep). DC cells were resuspended in media supplemented with IL-4 (Peprotech, 80 ng/mL) and GM-CSF (Gibco, 80 ng/mL), plated in 6 well microplates, and rested overnight at 37° C. (5% CO2). The following day, DC cells were counted and plated in a 96 well round bottom microplate at a concentration of 30,000 viable cells per well. Lyophilized peptides (15-mer overlapping peptides) were solubilized in 100% DMSO and pooled by neoantigen to between 5 mg/mL and 20 mg/mL. Neoantigen peptides pools were added to DCs for a final concentration of 2.5 μg/mL to 10 μg/mL and rested for 2 hours at 37° C. (5% CO2). CEF Peptide Pool “Plus” (Cellular Technologies, Ltd.) was utilized as a positive control and DMSO at the same final concentration as the experimental peptides was utilized as a negative control. After 2 hours, DC cells were irradiated with 50 gray of ionizing radiation. Autologous CD3+ Pan-T cells isolated from human normal PBMCs were thawed using media. Following irradiation, autologous Pan-T cells were added to the irradiated DCs at 300,000 viable cells per well. Human IL-15 (Peprotech) was added to all wells at final concentration of 10 ng/mL.
Plates were incubated at 37° C. (5% CO2) for a total of 12 days. Media was refreshed every 2-3 days with IL-15 (10 ng/mL final concentration) and IL-2 (R&D systems, 10 IU/mL final concentration). On day 11 cells were re-stimulated with identical experimental peptide pools or controls, at same concentration as peptide stimulation on Day 1. Protein Inhibitor Cocktail (eBioscience) was added to every well and plate was incubated overnight at 37° C. (5% CO2).
as §1, with “12,” for “13,”
Flow cytometry cell staining analysis was completed using FlowJo v10. Cells were gated on live, singlet, CD3+ cells. The CD8+ and CD4+ T cells were analyzed for TNFα/IFNγ expression and the frequency of double positive TNFα/IFNγ CD8+ and the frequency of double positive TNFα/IFNγ CD4+ T cells were recorded. Responses were assessed to be positive when the frequency of double positive TNFα/IFNγ CD8+ or TNFα/IFNγ CD4+ T cells due to stimulation with an experimental peptide pool was increased greater than or equal to 3-fold over the DMSO only negative control for that donor and at least 0.01%.
(§2) Overlapping 15-mer peptides were designed to span each neoantigen incorporated into NeoGAd20 and NeoMVA to assess their ability to activate T cells using the exogenous autologous normal donor restimulation assay described in Example 1 as pools using TNFα and IFNγ production by CD8^+ and CD4^+ T cells as a readout.
as §2, with “Immunogenicity of various additional identified neoantigens was assessed. Overlapping” for “Overlapping”, “similarly to what was done in Example 11” for “incorporated into NeoGAd20 and NeoMVA”

| Substance | Immunogenic [1] | Maximum fold change over negative control [1] | Maximum frequency of TNFα^+IFNγ^+CD8^+ T cells (Percent) [1] | Maximum Fold Change Over Background CD4+ cells [2] | Maximum Fold Change Over Background CD8+ cells [2] | Maximum Frequency of TNFα/IFNγ Double Positive CD4+ T cells [2] | Maximum Frequency of TNFα/IFNγ Double Positive CD8+ T cells [2] | Max. Fold Change over background CD4+ TNFαINFγ double positive DP [2] | Max. Fold Change over background CD8+ TNFαINFγ double positive DP [2] | Max. Frequency of CD4+ TNFαINFγ DP [2] | Max. Frequency of CD8+ TNFαINFγ DP [2] |
| --- | --- | --- | --- | --- | --- | --- | --- | --- | --- | --- | --- |
| GVPGDSTRRAVRRMNTF [Neoantigen P16] | Yes | 65.82 | 4.620% | 2.44 | 2.44 | 0.039 | 0.039 | – | – | – | – |
| HYKLIQQPISLFSITDRLHKTFSQLPSVHLCSITFQWGHPPIFCSTNDICVTANFCISVTFLKPCFLLHEASASQ [MS1] | – | – | – | 50.19 | 5.56 | 0.39 | 0.1 | – | – | – | – |
| NSKMALNSLNSIDDAQLTRIAPPRSHCCFWEVNAP [Neoantigen P35] | Yes | 2.67 | 0.064% | 3.47 | 14.44 | 0.03 | 0.26 | – | – | – | – |
| P19 (IPVLTRWPL) [Neoantigen P19] | – | – | – | – | – | – | – | 6.67 | 4.76 | 0.16 | 0.15 |
| P27 (FPVGAEGTF) [Neoantigen P27] | – | – | – | – | – | – | – | 45.38 | 7.87 | 0.05 | 0.59 |
| P27 (FPVGAEGTF) [Peptide P27] | Yes | 3.43 | 0.430% | – | – | – | – | – | – | – | – |
| P37 (GVLRRLLCR) [Neoantigen P37] | – | – | – | – | – | – | – | 22.78 | 2.05 | 0.09 | 0.13 |
| P37 (GVLRRLLCR) [Peptide P37] | Yes | – | 1.160% | – | – | – | – | – | – | – | – |
| P50 (IQYSCMGLM) [Peptide P50] | Yes | 5.14 | 0.190% | – | – | – | – | – | – | – | – |
| P59 (NMVENGCYL) [Peptide P59] | Yes | 10.75 | 3.010% | – | – | – | – | – | – | – | – |
| P97 (LMAQRLLLR) [Neoantigen P97] | – | – | – | – | – | – | – | 3.14 | 7.47 | 0.12 | 1.11 |
| TMPAILKLQKNCLLSL [MS8] | – | – | – | 15.60 | 4.44 | 0.40 | 0.14 | – | – | – | – |
| YAYKDFLWCFPFSLVFLQEIQICCHVSCLCCICCSTRICLGCLLELFLSRALRALHVLWNGFQLHCQ [MS6] | – | – | – | 111.97 | 4.17 | 0.87 | 0.08 | – | – | – | – |
